Experimental findings from patent publication US20130196406A1, “NOVEL PROTEIN-POLYMER NANOCAPSULES” (University of Connecticut, priority 2012, published 2013) are described below.

The target in assay [1] is T1, Hb-PAA-1k-6 nanocapsule (bovine met-hemoglobin conjugated to polyacrylic acid, synthesized at pH 6) (Bos taurus, UniProt P01966+P02070).
T1 construct: peroxidase-like activity with guaiacol/H2O2
The experiment in a line: Peroxidase-like activity, Michaelis-Menten kinetics (guaiacol oxidation by H2O2, 470 nm), Hb-PAA-1k-6. It is filed as biochemical. As to conditions: 1 μM Hb, 2.5 mM guaiacol, 1 mM H2O2. As for the experimental part: (§1) FIG. 5 provides Lineweaver-Burk plots for the peroxidase-like activity of Hb-PAA conjugates. A) Peroxidase-like activity for the 1 μM of Hb-PAA synthesized at pH 6.0. B) Peroxidase-like activity for 1 μM Hb-PAA synthesized at pH 7.0. All experiments were done in the presence of 1 μM Hb, 2.5 mM guaiacol and 1 mM H2O2.
(§2) Polyacrylic acid (PAA) (8000 Da) was purchased from sigma chemical Co (St. Louis, Mo.). The PAA stock solution was made by mixing 1.32 gm of 45% (w/w) PAA in 3 ml of 20 mM Na2HPO4 buffer, pH 7.2, and was further used for synthesis. Met-hemoglobin (Hb, bovine) was purchased from Sigma. Protein solutions were prepared in the respective buffers used for synthesis and the concentrations determined from the Soret absorbance of Hb using extinction co-efficient 303,956 M^−1 cm^−1 at 407 nm. […]
(§3) Hb activity was monitored by the addition of guaiacol (substrate) and hydrogen peroxide (oxidant), and formation of the colored product has been monitored by its absorption at 470 nm as a function of time (FIG. 4). […]
(§4) Hb activity was followed by literature method, with minor modifications. Product absorbance at 470 nm was monitored as a function time of after the addition of H2O2 (1 mM) to Hb (5 μM) and o-methoxyphenol (2.5 mM). Initial rates and Michaelis-Menten parameters were calculated from the kinetic data by following standard protocols. […]

Assay [2] deals with T2, Hb-PAA-1k-7 nanocapsule (bovine met-hemoglobin conjugated to polyacrylic acid, synthesized at pH 7) (Bos taurus, UniProt P01966+P02070).
T2 construct: peroxidase-like activity with guaiacol/H2O2
T2 sequence (P01966 whole entry): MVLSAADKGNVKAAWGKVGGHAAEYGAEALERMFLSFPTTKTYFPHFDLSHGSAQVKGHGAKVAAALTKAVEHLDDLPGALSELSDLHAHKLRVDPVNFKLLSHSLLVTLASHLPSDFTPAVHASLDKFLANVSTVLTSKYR
T2 sequence (P02070 whole entry): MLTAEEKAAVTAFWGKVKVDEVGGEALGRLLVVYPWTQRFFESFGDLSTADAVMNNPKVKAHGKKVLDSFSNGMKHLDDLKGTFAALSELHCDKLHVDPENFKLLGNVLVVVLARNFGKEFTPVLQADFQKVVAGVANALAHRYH
The experiment in a line: Peroxidase-like activity, Michaelis-Menten kinetics (guaiacol oxidation by H2O2, 470 nm), Hb-PAA-1k-7. The class given is biochemical. As to conditions: 1 μM Hb, 2.5 mM guaiacol, 1 mM H2O2. How it is done:
as §1, §2, §3, §4

T1 sequence (P01966 whole entry): as the sequence (P01966 whole entry) above
T1 sequence (P02070 whole entry): as the sequence (P02070 whole entry) above

Regarding `COc1ccccc1O` [guaiacol, o-methoxyphenol], the values for the Vmax in assay [1] and in assay [2] were 0.0028 mM/s and 0.0025 mM/s, respectively.
